The numbers were not newly measured in US20160089391A1, “Molecular Targets for Cardiovascular Disease” (Temple University-of the Commonwealth System of Higher …, priority 2014, published 2016), which cites them from elsewhere.

Molecules are shown by their SMILES.

In this data set the test system is calpain. The settings on record: mouse microvascular endothelial cells (Smolock et al., 2011); cited from earlier work.

Consider `CN(C)CCCn1cc(C2=C(c3c[nH]c4ccccc34)C(=O)NC2=O)c2ccccc21` [BIM-1], for which the calpain activity entry is listed as “decreased”.
